Measurements taken from PubChem BioAssay AID1902 (Broad Institute, 2009).
Activity calls are given as the source filed them.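 Rule for the calls: active = EC50 no more than a set limit of log units above the highest dose; inactive = the rest.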

Molecular target: S. pyogenes SKKanGAS, kanamycin survival, BacTiterGlo, 6 h
Test: S. pyogenes SKKanGAS kanamycin growth inhibitors – SKKanGAS strain, luminescence, dose confirmation, streptokinase promoter inhibitor project, dose response (AID 1902);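 note: lower survival reflects blocked streptokinase promoter driving kanamycin resistance gene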

| SMILES | EC50 |
| --- | --- |
| Cc1ccc(/C(O)=C/C(=O)C(=O)NC23CC4CC(CC(C4)C2)C3)cc1 | 2.06 µM |
| Cc1cccc(NCC(=O)N/N=C\c2cccc(Oc3ccccc3)c2)c1 | 11.9 µM |
| CCCOc1ccc(C(=O)NNC(=S)NC(=O)c2ccccc2)cc1 | 0.217 µM |
| c1ccc(-c2nc(NCc3ccco3)c3ccccc3n2)nc1 | 4.7 µM |
| Cc1ccc(C(=O)N2CCOCC2)cc1S(=O)(=O)N1CCOCC1 | > 15 µM (inactive) |
| COc1cc(OC)cc(C(=O)Nc2nc(-c3ccccc3)c(-c3ccccc3)o2)c1 | 0.629 µM |
| CCOc1ccc2nc(N3C(=O)/C(=C/c4ccc(Cl)cc4)NC3=S)sc2c1 | 1.3 µM |
| CCOc1ccc(-n2cc(-c3ccccc3)c3c(=S)nc[nH]c32)cc1 | 5.73 µM |
| O=C(Nc1nnc(C2=COCCO2)o1)c1ccc(Br)cc1 | 0.78 µM |
| COc1cccc(-c2nnc(NC(=O)c3ccc(S(=O)(=O)N4CC(C)OC(C)C4)cc3)o2)c1 (stereo unspecified) | 1.16 µM |
| CC/C(=N\NC(=S)Nc1cc(C)ccc1C)c1ccc(OC(F)F)cc1 | 3.13 µM |
| O=C(/C=C/c1ccc(F)cc1)NC(=S)NNC(=O)c1cnccn1 | 1.96 µM |
| O=c1cc(-c2ccc(O)c(-c3c(O)cc(O)c4c(=O)cc(-c5ccc(O)cc5)oc34)c2)oc2cc(O)cc(O)c12 | 2.3 µM |
| Cc1ccc(-n2[nH]c(C)c(/C=N/NC(=O)c3cccc([N+](=O)[O-])c3)c2=O)cc1C | 1.15 µM |
| CCCOc1ccc(-c2nc(OC)c3ccccc3n2)cc1 | > 15 µM (inactive) |
| Oc1ccc(/C=N/N(Cc2ccccc2)c2ccccc2)cc1 | 6.16 µM |
| O=C(/C=C1\NC2(CCCC2)Cc2ccccc21)C(=O)N/N=C/c1ccccc1O | 2.27 µM |
| CCOC(=O)c1c(NC(=O)c2cccs2)sc(CC)c1-c1cccs1 | 13.1 µM |
| O=C(Nc1nc(-c2ccccn2)cs1)Nc1ccc(F)cc1F | 1.24 µM |
| CCc1ccc(/C=C2\SC(=S)N(CCCC(=O)Nc3ccccc3C(=O)O)C2=O)cc1 | 3.35 µM |
| C/C(=N/Nc1nc(-c2ccccc2F)nc2ccccc12)c1ccccc1O | 8.27 µM |
| COc1cnc(-c2ccccn2)nc1Oc1ccccc1Cl | 14.4 µM |

| SMILES | EC50 |
| --- | --- |
| O=C(NC12CC3CC(CC(C3)C1)C2)c1ccc([N+](=O)[O-])o1 | 2 µM |
| CC(OC(=O)Cc1n[nH]c(=O)c2ccccc12)C(=O)Nc1ccc(Cl)cn1 (stereo unspecified) | 14.7 µM |
| S=C(Nc1ccc(Cl)cc1)c1nc2ccccc2[nH]1 | 0.183 µM |
| Cc1cc(C)c2nc(NNC(=O)c3ccc(S(=O)(=O)N4CCCC(C)C4)cc3)sc2c1 (stereo unspecified) | 0.297 µM |
| FC(F)(F)c1cc(-c2ccco2)nc(NCc2ccc(Cl)cc2)n1 | 7.1 µM |
| CC1(C)N=C(N)NC(Nc2ccccc2)=N1 | 3.75 µM |
| O=C(CNc1ccc(F)cc1)N/N=C/c1c(O)ccc2ccccc12 | 1.12 µM |
| CCC1C(=NO)C(CC)C(c2ccccc2)NC1c1ccccc1 (stereo unspecified) | 3.34 µM |
| COc1c(N2CCNC(C)C2)c(F)cc2c(=O)c(C(=O)O)cn(C3CC3)c12 (stereo unspecified) | 0.668 µM |
| CCS(=O)(=O)N1Cc2ccccc2CC1C(=O)Nc1nnc(SCc2ccc(F)cc2)s1 (stereo unspecified) | 2.35 µM |
| O=C(Nc1nnc(-c2ccco2)o1)c1ccc(Cl)s1 | 1.71 µM |
| O=C(NC(=S)N1CCN(c2ccc(F)cc2)CC1)C12CC3CC(CC(C3)C1)C2 | 11.1 µM |
| CNC(=S)N/N=C/c1cn(Cc2ccc(C)cc2)c2ccccc12 | 5.33 µM |
| COc1ccc(Sc2ccc(NC(=O)c3ccccc3Cl)cc2C#N)cc1 | 2.51 µM |
| NC(=NCCCCCCN=C(N)/N=C(\N)Nc1ccc(Cl)cc1)/N=C(\N)Nc1ccc(Cl)cc1 | 0.789 µM |
| Cc1ccc(C(=O)Nc2nc(-c3ccccc3)c(-c3ccccc3)o2)cc1 | 0.541 µM |
| Cc1c(-c2cccc(Cl)c2)nc2ccccc2c1C(=O)OC/C(O)=C(\C#N)c1nc2ccccc2[nH]1 | 1.9 µM |
| CC(C)NC(=O)NC(=O)CSc1nnc(COc2ccccc2F)n1C(C)C1CC2CCC1C2 (stereo unspecified) | 6.58 µM |
| CCCn1cc(CN2CCC(n3nccc3NC(=O)c3ccccc3)CC2)c(C)n1 | > 15 µM (inactive) |
| COc1cc(/C=N/Nc2nc(Nc3ccccc3)nc(-n3nc(C)cc3C)n2)cc(OC)c1OC | 3.14 µM |
| NC1CCN(c2nc3c(cc2F)c(=O)c(C(=O)O)cn3-c2ccc(F)cc2F)C1 (stereo unspecified) | 0.296 µM |
| Fc1ccc(Cn2cccc2C2=NC(c3ccccc3)CO2)cc1 (stereo unspecified) | 7.34 µM |

| SMILES | EC50 |
| --- | --- |
| O=c1[nH]c(CN2CC=C(c3ccccc3)CC2)nc2scc(-c3cccs3)c12 | 3.87 µM |
| CC1(C(=O)NC(=S)NNC(=O)c2ccncc2)CCCCC1 | 1.1 µM |
| CC(C)C[C@H](NC(=O)c1nc[nH]c1C(=O)NC1CCN(C(=O)OC(C)(C)C)CC1)C(=O)OCc1ccccc1 | 5.47 µM |
| Cc1ccccc1C(=O)NNC(=S)NC(=O)c1cccs1 | 2.31 µM |
| Cc1ccccc1C(=O)Oc1cccc(Nc2ncnc3ccccc23)c1 | 3.57 µM |
| CCOC(=O)c1ccc(NC(=O)c2nc[nH]c2C(=O)N[C@@H](Cc2ccccc2)C(=O)OC(C)(C)C)cc1 | 3.17 µM |
| CCOC(=O)c1nnn(-c2nonc2-n2cccc2)c1CN1CCC(C)CC1 | 8.02 µM |
| COc1ccc(/C=C2/Sc3ccc(C(=O)N4CCc5ccccc5C4)cc3NC2=O)cc1 | 1.65 µM |
| COc1cccc(/C=N/NC(=O)c2cc3c(OC)ccc(OC)c3[nH]2)c1O | 2 µM |
| C/C(=C\C(=O)OCCCCCCCCC(=O)O)C[C@@H]1OC[C@H](C[C@@H]2O[C@H]2[C@@H](C)[C@H](C)O)[C@@H](O)[C@H]1O | < 0.06 µM |
| CC(C)Oc1ccc(C(=O)Nc2nnc(C3=COCCO3)o2)cc1 | 0.794 µM |
| COc1ccc(C(=O)Nc2sc(C)c(-c3ccccc3)c2C#N)cc1OC | 13.3 µM |
| c1ccc(-c2cc3c(NCC4COc5ccccc5O4)ncnc3s2)cc1 (stereo unspecified) | 2.98 µM |
| CC(=O)N1c2ccc(S(=O)(=O)N3CCC(C(=O)Nc4cc(C)ccn4)CC3)cc2CC1C (stereo unspecified) | > 15 µM (inactive) |
| Cc1[nH]n(-c2ncc(-c3ccccc3)s2)c(=O)c1C(c1ccc(Br)cc1)C(C#N)C#N (stereo unspecified) | 5.83 µM |
| COc1cc(OC)cc(C(=O)Nc2nc3ccccc3[nH]2)c1 | 12.8 µM |
| CC(C)(C)c1nc(NC(=O)Nc2ccccc2)sc1Br | 6.3 µM |
| CC(=O)Oc1c(I)cc(I)cc1C(=O)Nc1ccc(Cl)cc1 | 0.394 µM |
| Cc1ccc2sc(NNC(=O)c3cc(=O)c4ccccc4o3)nc2c1C | 1.18 µM |
| c1ccc(/N=C2\N=C(Nc3ccccn3)c3ccccc32)nc1 | 2.44 µM |
| COc1ccc(Cl)cc1C(=O)NNC(=S)NC(=O)c1ccc(F)c(F)c1 | 0.139 µM |
| CC(C)CN1C(=S)SC(C)(C)C1n1oc(=O)n(-c2ccc(Cl)cc2)c1=O (stereo unspecified) | 4.33 µM |

| SMILES | EC50 |
| --- | --- |
| COc1ccc(CCN2C(=O)c3[nH]nc(-c4ccccc4O)c3C2c2cccc(Cl)c2)cc1 (stereo unspecified) | 7.71 µM |
| CC(C)N1CCc2c(sc(NC(=O)c3ccc(S(=O)(=O)N(C)CC4CCCO4)cc3)c2C(N)=O)C1 (stereo unspecified) | > 15 µM (inactive) |
| Cc1ccc2nc(/N=C(\N)NC(=O)NC3CCCCC3)nc(C)c2c1 | 1.15 µM |
| Cc1cccc(-c2oc3ccccc3c2-c2ccc3c(c2)OCO3)c1 | 3.65 µM |
| O=S(=O)(Nc1ccc(O)c(Sc2nc3ccccc3s2)c1)c1cccc2ccccc12 | 3.09 µM |
| O=C(N/N=C/c1ccccn1)c1ccc(Cl)c(Cl)c1 | 6.85 µM |
| CC(=O)C1=C(c2ccc(Br)cc2)C(=O)c2ccccc2C1=O | 1.45 µM |
| Cc1cc(=O)oc2cc(OCC(=O)N3CCN(C(=O)C4COc5ccccc5O4)CC3)ccc12 (stereo unspecified) | 3.16 µM |
| Cc1oc(-c2cc(Cl)cc(Cl)c2)cc1C(=O)NCCc1ccccc1 | 11.7 µM |
| O=C(CSc1nnc(CNC(=O)c2ccc(F)cc2)o1)NCc1ccccc1 | > 15 µM (inactive) |
| CCCOC(=O)c1ccc(Oc2c(-c3ccc(OC)cc3O)n[nH]c2C)cc1 | 13.5 µM |
| CCOc1ccc(N=Nc2ccc(O)c3ncccc23)cc1 | 0.186 µM |
| O=C(Nc1ccc(Br)c(C(F)(F)F)c1)c1ccc(C(F)(F)F)cc1 | 1.86 µM |
| Cc1cc(C)c2c(n1)sc1c(=O)n(CC(=O)c3ccccc3)cnc12 | 1.55 µM |
| CC(C)=CCc1c(O)c(CC=C(C)C)c2occ(-c3ccc(O)cc3)c(=O)c2c1O | 1.86 µM |
| Cc1ccc(N=N/C(=C\O)C(=O)c2ccc(Cl)cc2)cc1 | 8.59 µM |
| COc1cccc(-c2nn(C)c3sc(C(=O)Nc4ccc5c(c4)OCCO5)cc23)c1 | 3.65 µM |
| Nc1nc(CN2CCN(c3ccccc3)CC2)nc(N2CCCc3ccccc32)n1 | 0.879 µM |
| COc1cccc(N2C(=O)C3NN=C(C(=O)CN4C(=O)c5ccccc5C4=O)C3C2=O)c1 (stereo unspecified) | > 15 µM (inactive) |
| COc1ccc(Br)cc1/C=C/C(=O)NC(=S)Nc1ccc(Cl)c(C(=O)O)c1 | 10.5 µM |
| CCCn1nnnc1NC(=O)c1ccc2ccccc2c1 | 1.01 µM |
| O=C(N/N=C/c1ccc([N+](=O)[O-])o1)c1cc(-c2cccc(Br)c2)nc2ccccc12 | 0.422 µM |

| SMILES | EC50 |
| --- | --- |
| CC[C@H]1OC(=O)[C@H](C)[C@@H](O[C@H]2C[C@@](C)(OC)[C@@H](O)[C@H](C)O2)[C@H](C)[C@@H](O[C@@H]2O[C@H](C)C[C@H](N(C)C)[C@H]2O)[C@](C)(O)C[C@@H](C)C(=O)[C@H](C)[C@@H](O)[C@]1(C)O | < 0.06 µM |
| Cc1cc(=O)[nH]c(SCC(=O)Nc2ccc(Br)cc2)c1C#N | 9.7 µM |
| CC1(c2ccccc2)CC(C)(C)N2C(=O)/C(=C3\SC(=S)NC3=O)c3cccc1c32 (stereo unspecified) | 0.43 µM |
| CC12CCC(CC1)C(C)(C)O2 | > 15 µM (inactive) |
| CCOc1cc(/C=C2\C(=O)N(c3nc(-c4ccc(Br)cc4)cs3)N=C2c2ccccc2)ccc1O | 1.77 µM |
| CCCCNC(=O)c1cn(CC(C)C)c(=O)c2c1c1ccccc1n2C | 9.02 µM |
| O=C(Cc1cccs1)N/N=C/c1ccco1 | 2.9 µM |
| CC(C)(C)c1ccc(O)c(N=Cc2c(O)ccc3ccccc23)c1 | 5.12 µM |
| Cc1c(C(=O)Nc2ccc(Oc3ccccc3)cc2)sc2nc3n(c(=O)c12)CCC3 | 6.21 µM |
| C=C(C)C1Cc2c(C)nn(-c3nc(C)cc(C)n3)c2C1 (stereo unspecified) | 0.694 µM |
| Cc1cccc(/C=C/C(=O)c2ccc([N+](=O)[O-])o2)c1 | 4.81 µM |
| Cn1c(O)c(N=NC(=S)Nc2ccccc2F)c2cc(S(=O)(=O)N3CCOCC3)ccc21 | 5.09 µM |
| CC(Oc1ccc(Cl)cc1)C(=O)NNC(=S)NC(=O)c1ccco1 (stereo unspecified) | 0.325 µM |
| O=C(Nc1ccccc1Sc1ccccc1)c1ccccc1F | 4.53 µM |
| Cc1ccc(SCc2cc(=O)[nH]c(SCC(=O)Nc3cc(Cl)ccc3Cl)n2)cc1 | 6.79 µM |
| Oc1[nH]c2ccccc2c1N=NC(=S)N1CCOCC1 | 0.273 µM |
| C(=N\Nc1ncnc2sc3c(c12)CCC3)/c1cccs1 | 10.2 µM |
| COc1cc([N+](=O)[O-])cc(/C=N/NC(=O)c2cncc(Br)c2)c1O | 0.97 µM |
